Read-outs that look alike come from different tables or passages of the source.
Experiments:
rat pancreatic islets [1] = assay: Insulin release from incubated rat pancreatic islets; assay type: cell-based; conditions: 10 μM compound, 16.7 mM glucose, % of control without drug; mean ± s.e.m. (n)
Procedure: Measurement of insulin release from incubated rat pancreatic islets was performed according to the following procedure.
Experiments were performed with pancreatic islets isolated from adult fed Wistar rats (Charles River Laboratories, Belgium).
Groups of 10 islets, each derived from the same batch of islets, were preincubated for 30 minutes at 37° C. in 1 mL of a physiological salt medium (in mM: NaCl 115, KCl 5, CaCl2 2.56, MgCl2 1, NaHCO3 24) supplemented with 2.8 mM glucose, 0.5% (w:v) dialyzed albumin (Sigma) and equilibrated against a mixture of O2 (95%) and CO2 (5%). The islets were then incubated at 37° C. for 90 minutes in 1 mL of the same medium containing 16.7 mM glucose and, in addition, the required benzopyran derivative.
The release of insulin was measured radioimmunologically according to Leclercq-Meyer et al., Endocrinology, 1985, 116, 1168-1174 using rat insulin as a standard.
Residual insulin secretion was expressed as a percentage of the value recorded in control experiments (100%); i.e. in the absence of drug and presence of 16.7 mM glucose. Measurement of 86Rb outflow from perifused rat pancreatic islets was performed according to the following procedure. Groups of 100 islets were incubated for 60 min in a medium containing 16.7 mM glucose and 86Rb (0.15-0.25 mM; 50 μCi/ml). After incubation, the islets were washed three times and then placed in a perifusion chamber. The perifusate was delivered at a constant rate (1.0 ml/min). From the 31st to the 90th min, the effluent was continuously collected over successive periods of 1 min each. An aliquot of the effluent (0.6 ml) was used for scintillation counting. At the end of the perifusion, the radioactive content of the islets was determined. The outflow of 86Rb (cpm/min) was expressed as a fractional outflow rate (% of instantaneous islet content/min; FOR).

rat aorta rings = assay: Measurement of tension in rat aorta rings (myorelaxant activity); assay type: cell-based; conditions: KCl-contracted rat aorta rings; concentration evoking 50% inhibition of plateau phase; mean ± s.e.m. (n); read-out: Myorelaxant activity ED50
Procedure: Measurement of tension in rat aorta rings was performed according to the following procedure.
Experiments were performed with aorta removed from adult fed Wistar rats (Charles River Laboratories, Belgium).
A section of the thoracic aorta was cleared of adhering fat and connective tissue and was cut into transverse rings (3-4 mm long). The endothelium was removed and the segments suspended under 1.5 g tension in an organ bath containing 20 mL of a physiological solution (in mM: NaCl 118, KCl 4.7, CaCl2 2.5, NaHCO3 25, KH2PO4 1.2, MgSO4 1.2, glucose 5). The physiological solution was maintained at 37° C. and continuously bubbled with a mixture of O2 (95%) and CO2 (5%). Isometric contractions were measured with a force-displacement transducer. After 60 minutes of equilibration, the rings were exposed to KCl (30 or 80 mM). When the tension had stabilized, the chroman derivative was added to the bath at increasing concentrations until maximal relaxation (or until 300 µM). Some experiments were repeated in the continuous presence of 1 or 10 µM glibenclamide in the bathing medium.
The relaxation response was expressed as the percentage of the contractile response to KCl. The ED50 values (concentration evoking 50% inhibition of the plateau phase induced by KCl) were assessed from dose-response curves using Datanalyst software (EMKA Technologies, France).

rat pancreatic islets [2] = conditions: cited from earlier work; for Residual insulin secretion (%) [10 μM]: 10 μM compound, published results (footnotes b, c)

Compound | Residual insulin secretion (%) [10 μM] (rat pancreatic islets [1]) | also measured
CC1(C)Oc2ccc(C#N)cc2C(N2CCCC2=O)C1O (stereo not drawn) [Cromakalim, cromakalim] | 94.7 ± 4.3 (24) % | EC50 (rat aorta rings): 130 ± 10 nM; Activity as an inhibitor of insulin secretion (in words) (rat pancreatic islets [2]; background statement, reflects poor activity as PCO on pancreatic KATP channels): poorly active
COc1cccc(NC(=S)NC2CC(C)(C)Oc3ccc(F)cc32)c1 (stereo not drawn) [Example 22, R/S-3,4-Dihydro-2,2-dimethyl-6-fluoro-4-(3-methoxyphenylaminothiocarbonylamino)-2H-1-benzopyran] | 52.0 ± 2.3% | –
Cc1cccc(NC(=S)NC2CC(C)(C)Oc3ccc(F)cc32)c1 (stereo not drawn) [Example 4, R/S-3,4-Dihydro-2,2-dimethyl-6-fluoro-4-(3-methylphenylaminothiocarbonylamino)-2H-1-benzopyran] | 53.1 ± 3.6% | –
CC1(C)CC(NC(=O)Nc2ccc(Cl)cc2)c2cc(Br)ccc2O1 (stereo not drawn) [Example 82, R/S-6-Bromo-4-(4-chlorophenylaminocarbonylamino)-3,4-dihydro-2,2-dimethyl-2H-1-benzopyran] | 25.7 ± 1.5% | –
CC1(C)CC(NC(=S)Nc2cccnc2)c2cc(Br)ccc2O1 (stereo not drawn) [Example 42, R/S-6-Bromo-3,4-dihydro-2,2-dimethyl-4-(3-pyridylaminothiocarbonylamino)-2H-1-benzopyran] | 44.3 ± 2.8% | –
CC1=NS(=O)(=O)c2cc(Cl)ccc2N1 [Diazoxide, diazoxide] | – | Residual insulin secretion (%) [10 μM] (rat pancreatic islets [2]): 71.7 ± 2.8 (38)^b %
CC1(C)CC(NC(=O)Nc2cccc(Cl)c2)c2cc(F)ccc2O1 (stereo not drawn) [Example 77, R/S-4-(3-Chlorophenylaminocarbonylamino)-3,4-dihydro-2,2-dimethyl-6-fluoro-2H-1-benzopyran] | 28.0 ± 1.5% | –
Cc1ccc(NC(=S)NC2CC(C)(C)Oc3ccc(Cl)cc32)cc1 (stereo not drawn) [Example 8, R/S-6-Chloro-3,4-dihydro-2,2-dimethyl-4-(4-methylphenylaminothiocarbonylamino)-2H-1-benzopyran] | 32.8 ± 1.9% | –
CC(N/C(=N\C#N)Nc1ccncc1)C(C)(C)C (stereo not drawn) [Pinacidil, pinacidil] | – | EC50 (rat aorta rings): 350 ± 20 nM; Residual insulin secretion (%) [10 μM] (rat pancreatic islets [2]): 96.0 ± 4.2 (20)^c %

Source: patent publication US7507761B2, “Benzopyran derivatives, method of production and use thereof” (Universite de Liege, priority 2004, dated 2009)
